Data: patent publication US11866458B2, “Panaxadiol glycoside derivative and preparation method and application thereof” (SUZHOU JI ER BIOLOGICAL MEDICINE CO., LTD., priority 2018, dated 2024)

Key:
[1] = system: mouse asthma model induced by OVA; assay: Asthma induced by ovalbumin in Balb/c mice: IgE level in serum by ELISA; type: in vivo; details: oral; for content of IgE in mice serum (conclusion in words): model of mouse asthma induced by OVA, samples; for therapeutic effect on bronchial asthma induced by OVA: mouse
[2] = system: COPD rats induced by smoke exposure; assay: COPD induced by smoke exposure in rats: lung function FEV0.2/FVC; type: in vivo, Wistar rats; details: for FEV2/FVC % (FEV0.2/FVC %, forced expiratory index within 200 ms): 180 days; for effect in COPD rats compared with inhaled budesonide: high dose group, oral
[3] = system: inflammatory cells in bronchoalveolar lavage fluid of mice; assay: Determination of inflammatory cells in bronchoalveolar lavage fluid of mice (OVA asthma model); type: in vivo, BALB/C mice; parameters: unit not given here; details: oral
Experimental: 144 6-week-old BALB/C mice (18-20 g) were divided into 24 groups: control group, placebo group, dexamethasone group (3 mg/kg) and the drug groups. There were 6 in each group. The control group was given normal saline without any treatment. The other groups were sensitized by intraperitoneal injection of OVA 20 μg and aluminum hydroxide 200 μL PBC (2 mg, prepared into emulsion). […] On day 21, 22 and 23, the therapeutic agent (i.e. 3 mg/kg dexamethasone in the positive control group and oral administration in the drug group) was given orally. From day 17 to 23, PBS was given to the control group and placebo group respectively, PBS (without OVA) was given to the control group. On day 0 and day 14, the normal saline was nebulized for 30 minutes to remove the aluminum hydroxide on day 21, 22 and 23 See in Table 2.

[4] = Table 1-1 (1st time), 20 mg/kg, 24 hours after last OVA stimulation

Row | SMILES | Concentration of IgE in serum [1, 4] | Concentration of IgE in serum ([1]; Table 1-2 (2nd time), 15 mg/kg) | Concentration of IgE in serum ([1]; Table 1-2 (2nd time), 30 mg/kg) | Concentration of IgE in serum ([1]; Table 1-2 (2nd time), 60 mg/kg) | content of IgE in mice serum (conclusion in words) [1] | therapeutic effect on bronchial asthma induced by OVA [1] | FEV2/FVC % (FEV0.2/FVC %, forced expiratory index within 200 ms) ([2]; 20 mg/kg oral) | FEV2/FVC % (FEV0.2/FVC %, forced expiratory index within 200 ms) ([2]; 40 mg/kg oral) | FEV2/FVC % (FEV0.2/FVC %, forced expiratory index within 200 ms) ([2]; 80 mg/kg oral) | effect in COPD rats compared with inhaled budesonide [2] | Acidic cells in bronchoalveolar lavage fluid ([3]; 2 mg/kg) | Neutral cells in bronchoalveolar lavage fluid ([3]; 2 mg/kg) | lymphocyte in bronchoalveolar lavage fluid ([3]; 2 mg/kg) | Acidic cells in bronchoalveolar lavage fluid ([3]; 20 mg/kg) | Neutral cells in bronchoalveolar lavage fluid ([3]; 20 mg/kg) | Total inflammatory cells in bronchoalveolar lavage fluid ([3]; 20 mg/kg) | lymphocyte in bronchoalveolar lavage fluid ([3]; 20 mg/kg) | Neutral cells in bronchoalveolar lavage fluid ([3]; 200 mg/kg) | Total inflammatory cells in bronchoalveolar lavage fluid ([3]; 200 mg/kg) | lymphocyte in bronchoalveolar lavage fluid ([3]; 200 mg/kg) | other results
1 | CC(C)=CCC[C@](C)(O[C@@H]1OC(CO)[C@@H](O)[C@H](O)C1O)C1CC[C@]2(C)C1C(=O)CC1[C@@]3(C)CC=CC(C)(C)C3CC[C@]12C (stereo partly drawn) [IH, 20(S)—O-β-D-glucopyranosyl dammarane-3, 24-diene-12-one] | 1191.08 ± 107.59 ng/mL | 1682.40 ± 182.76 ng/mL | 1311.37 ± 165.93 ng/mL | 1150.59 ± 129.55 ng/mL | significantly reduce | obvious therapeutic effect | 63.27 ± 14.65% | 73.59 ± 12.14 % | 85.51 ± 15.27 % | superior to budesonide | – | – | – | – | – | – | – | – | – | – | –
2 | CC(C)=CCC[C@](C)(O[C@@H]1OC(CO)[C@@H](O)[C@H](O)C1O)C1CC[C@]2(C)C1/C(=N\O)CC1[C@@]3(C)CC/C(=N\O)C(C)(C)C3CC[C@]12C (stereo partly drawn) [IVA, 20(S)—O-β-D-glucopyranosyl dammarane-3,12-hydroxyl imino-24-ene-12-one] | 1358.27 ± 248.70 ng/mL | 2026.13 ± 273.15 ng/mL | 1927.60 ± 151.61 ng/mL | 1723.86 ± 167.59 ng/mL | – | – | 66.25 ± 11.49% | 75.98 ± 9.26 % | 88.33 ± 12.49 % | superior to budesonide | 29.09 ± 4.83 | 9.15 ± 5.68 | 15.35 ± 9.23 | 15.83 ± 2.88 | 7.38 ± 3.09 | 32.46 ± 17.21 | 5.24 ± 3.34 | 6.17 ± 4.09 | 14.69 ± 5.77 | 4.19 ± 3.48 | Acidic cells in bronchoalveolar lavage fluid ([3]; 200 mg/kg): 4.45 ± 2.14
3 | COC(=O)C1O[C@@H](O[C@@](C)(CCC=C(C)C)C2CC[C@]3(C)C2C(=O)CC2[C@@]4(C)CC[C@H](OC(C)=O)C(C)(C)C4CC[C@]23C)C(O)[C@@H](O)[C@@H]1O (stereo partly drawn) [IA-1, 3-β-O-acetyl-20(S)—O-β-D-glucopyranuronic acid methyl ester dammarane-24-ene-12-one] | – | – | – | – | – | – | – | – | – | – | 26.55 ± 13.23 | 10.21 ± 6.07 | 13.22 ± 8.27 | 13.26 ± 3.92 | 3.95 ± 2.41 | 28.11 ± 14.91 | 4.76 ± 3.18 | 3.75 ± 2.46 | 11.48 ± 4.39 | 3.82 ± 2.66 | Total inflammatory cells in bronchoalveolar lavage fluid ([3]; 2 mg/kg): 43.42 ± 26.14; Acidic cells in bronchoalveolar lavage fluid ([3]; 200 mg/kg): 5.22 ± 3.31
4 | CC(C)=CCC[C@](C)(O[C@@H]1OC[C@H](O)[C@H](O)C1O)C1CC[C@]2(C)C1[C@H](O)CC1[C@@]3(C)CC[C@H](O)C(C)(C)C3CC[C@]12C (stereo partly drawn) [IL, 20-O-α-L-arabinopyrauosyl-20(S)-panaxadiol glycoside] | 996.36 ± 102.45 ng/mL | 1548.67 ± 190.16 ng/mL | 1311.37 ± 154.37 ng/mL | 1080.12 ± 131.23 ng/mL | significantly reduce | obvious therapeutic effect | 71.15 ± 10.34 % | 80.25 ± 8.79 % | 89.62 ± 5.14 % | superior to budesonide | – | – | – | – | – | – | – | – | – | – | –
5 | CCCC1O[C@@H]2C[C@H]3[C@@H]4CCC5=CC(=O)C=C[C@]5(C)[C@H]4[C@@H](O)C[C@]3(C)[C@]2(C(=O)CO)O1 (stereo partly drawn) [Budesonide, reference compound] | – | – | – | – | – | – | – | – | – | – | – | – | – | – | – | – | – | – | – | – | FEV2/FVC % (FEV0.2/FVC %, forced expiratory index within 200 ms) ([2]; nebulized 0.25 mg/mL, 4 mL, 30 minutes): 79.47 ± 12.39 %
6 | CC(=O)O[C@H]1CC[C@@]2(C)C(CC[C@]3(C)C2CC(=O)C2C([C@](C)(CCC=C(C)C)O[C@@H]4OC(CO)[C@@H](O)[C@H](O)C4O)CC[C@]23C)C1(C)C (stereo partly drawn) [IA, 3-O-acetyl-20(S)—O-β-D-glucopyranosyl Dammarane-24-ene-12-one] | – | – | – | – | – | – | – | – | – | – | 29.23 ± 10.29 | 10.40 ± 6.48 | 11.81 ± 5.97 | 11.46 ± 4.12 | 6.38 ± 3.45 | 26.93 ± 15.01 | 8.84 ± 5.63 | 2.08 ± 2.01 | 10.85 ± 4.62 | 4.27 ± 3.16 | Total inflammatory cells in bronchoalveolar lavage fluid ([3]; 2 mg/kg): 40.75 ± 26.14
7 | CC(C)=CCC[C@](C)(O[C@@H]1OC[C@@H](O)[C@H](O)C1O)C1CC[C@]2(C)C1[C@H](O)CC1[C@@]3(C)CC[C@H](O)C(C)(C)C3CC[C@]12C (stereo partly drawn) [IJ, 20-O-β-D-xylopyranosyl-20(S)-panaxadiol glycoside] | 1250.07 ± 144.38 ng/mL | 2068.41 ± 153.29 ng/mL | 1824.85 ± 155.74 ng/mL | 1622.18 ± 130.38 ng/mL | – | – | 65.78 ± 12.35% | 77.57 ± 9.69 % | 84.36 ± 7.10 % | superior to budesonide | – | – | – | – | – | – | – | – | – | – | –
8 | CC(C)=CCC[C@](C)(O[C@@H]1OC(C)[C@H](O)[C@H](O)C1O)C1CC[C@]2(C)C1[C@H](O)CC1[C@@]3(C)CC[C@H](O)C(C)(C)C3CC[C@]12C (stereo partly drawn) [IK] | 1020.78 ± 136.94 ng/mL | 1720.54 ± 165.49 ng/mL | 1406.28 ± 171.05 ng/mL | 1217.43 ± 162.75 ng/mL | significantly reduce | obvious therapeutic effect | 67.67 ± 11.39% | 78.59 ± 6.12 % | 85.56 ± 10.07 % | superior to budesonide | – | – | – | – | – | – | – | – | – | – | –
